Reference: ChEMBL document CHEMBL1201862, “PubChem BioAssay data set” (2004)
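Protocol summary: plate cells (96-well), add compound at 5 concentrations, incubate 48 h, interpolate endpoints linearly. At the GI50, growth is halved.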 Activity calls are given as the source filed them. No stated cut-off is given here; in the data, active = GI50 up to about 1.1 µM and inactive = higher.

What was measured:
Test in all cases: DTP human tumour cell line panel, 48 h
HCT-116 = test system: HCT-116
K562 = test system: K562
CCRF-CEM = test system: CCRF-CEM
M19-MEL = test system: M19-MEL
SF-539 = test system: SF-539
RPMI-8226 = test system: RPMI-8226
RXF 393 = test system: RXF 393
MCF7 = test system: MCF7
CAKI-1 = test system: CAKI-1
DLD-1 = test system: DLD-1
SK-MEL-5 = test system: SK-MEL-5
SNB-75 = test system: SNB-75
786-0 = test system: 786-0
M14 = test system: M14
ACHN = test system: ACHN

Measured: GI50

Cc1c2ccncc2cc2c1[nH]c1ccccc12
inactive: HCT-116 2.44 µM | K562 3.48 µM | CCRF-CEM 3.78 µM | M19-MEL 3.81 µM | SF-539 2.48 µM | RPMI-8226 3.07 µM | RXF 393 2.68 µM | MCF7 1.57 µM | CAKI-1 3.88 µM | DLD-1 5.01 µM | SK-MEL-5 3.97 µM | SNB-75 5.26 µM

COC1OC(=O)[C@H]2O[N+]([O-])=C(C)[C@@H]12 (some centres not stated)
inactive: HCT-116 > 100 µM | K562 > 100 µM | CCRF-CEM > 100 µM | M19-MEL > 100 µM | SF-539 > 100 µM | RPMI-8226 > 100 µM | RXF 393 > 100 µM | MCF7 > 100 µM | CAKI-1 > 100 µM | DLD-1 > 100 µM | SK-MEL-5 > 100 µM | SNB-75 > 100 µM

NC1CCCCC1.O=P(O)(O)C(CSc1ccccc1)P(=O)(O)O
inactive: HCT-116 > 100 µM | K562 > 100 µM | CCRF-CEM > 100 µM | M19-MEL > 100 µM | SF-539 > 100 µM | RPMI-8226 > 100 µM | RXF 393 > 100 µM | MCF7 > 100 µM | CAKI-1 > 100 µM | DLD-1 > 100 µM | SK-MEL-5 > 100 µM | SNB-75 > 100 µM

CN(C)c1n/c(=N/c2ccc(/N=c3\nc(N(C)C)ss3)cc2)ss1
inactive: 786-0 63.7 µM | HCT-116 15.1 µM | K562 11.7 µM | CCRF-CEM 4.99 µM | M19-MEL 20.3 µM | SF-539 35.4 µM | M14 12.9 µM | RPMI-8226 9.68 µM | RXF 393 16.5 µM | CAKI-1 > 44.3 µM | DLD-1 13.4 µM | SK-MEL-5 22.4 µM | ACHN 36.9 µM | SNB-75 13.5 µM

COc1ccc(C2COc3cc(O)c(O)cc3C2)cc1 (configuration not stated)
inactive: HCT-116 11.3 µM | K562 9.08 µM | CCRF-CEM 2.86 µM | M19-MEL 15.1 µM | SF-539 30.1 µM | RPMI-8226 7.45 µM | RXF 393 6.87 µM | MCF7 37.2 µM | CAKI-1 13.7 µM | DLD-1 9.93 µM | SK-MEL-5 24.4 µM | SNB-75 43.8 µM
